Measurements as given in US20230365559A1, “NOVEL AMINOPYRIDINES AND THEIR USE IN TREATING CANCER” (priority 2020, published 2023).

Columns and labels:
[1] = biological target: human mTOR (Homo sapiens, UniProt P42345); test: Inhibition of mTOR kinase activity, HotSpot assay, phosphorylation of 4EPB1; conditions: Inhibition of kinase activity (as IC50) mTOR (nM), 10 μM ATP; mean of two replicates; Table 12
[2] = biological target: human PI3Kα (p110α/p85α) (Homo sapiens, UniProt P42336); test: Inhibition of PI3Kα kinase activity, ADP-Glo Assay (Reaction Biology); format: biochemical; conditions: 10 μM ATP; mean of two replicates; Table 12; read-out: Inhibition of kinase activity (as IC50) PICK
Sequence of human PI3Kα (p110α/p85α) (P42336 whole entry): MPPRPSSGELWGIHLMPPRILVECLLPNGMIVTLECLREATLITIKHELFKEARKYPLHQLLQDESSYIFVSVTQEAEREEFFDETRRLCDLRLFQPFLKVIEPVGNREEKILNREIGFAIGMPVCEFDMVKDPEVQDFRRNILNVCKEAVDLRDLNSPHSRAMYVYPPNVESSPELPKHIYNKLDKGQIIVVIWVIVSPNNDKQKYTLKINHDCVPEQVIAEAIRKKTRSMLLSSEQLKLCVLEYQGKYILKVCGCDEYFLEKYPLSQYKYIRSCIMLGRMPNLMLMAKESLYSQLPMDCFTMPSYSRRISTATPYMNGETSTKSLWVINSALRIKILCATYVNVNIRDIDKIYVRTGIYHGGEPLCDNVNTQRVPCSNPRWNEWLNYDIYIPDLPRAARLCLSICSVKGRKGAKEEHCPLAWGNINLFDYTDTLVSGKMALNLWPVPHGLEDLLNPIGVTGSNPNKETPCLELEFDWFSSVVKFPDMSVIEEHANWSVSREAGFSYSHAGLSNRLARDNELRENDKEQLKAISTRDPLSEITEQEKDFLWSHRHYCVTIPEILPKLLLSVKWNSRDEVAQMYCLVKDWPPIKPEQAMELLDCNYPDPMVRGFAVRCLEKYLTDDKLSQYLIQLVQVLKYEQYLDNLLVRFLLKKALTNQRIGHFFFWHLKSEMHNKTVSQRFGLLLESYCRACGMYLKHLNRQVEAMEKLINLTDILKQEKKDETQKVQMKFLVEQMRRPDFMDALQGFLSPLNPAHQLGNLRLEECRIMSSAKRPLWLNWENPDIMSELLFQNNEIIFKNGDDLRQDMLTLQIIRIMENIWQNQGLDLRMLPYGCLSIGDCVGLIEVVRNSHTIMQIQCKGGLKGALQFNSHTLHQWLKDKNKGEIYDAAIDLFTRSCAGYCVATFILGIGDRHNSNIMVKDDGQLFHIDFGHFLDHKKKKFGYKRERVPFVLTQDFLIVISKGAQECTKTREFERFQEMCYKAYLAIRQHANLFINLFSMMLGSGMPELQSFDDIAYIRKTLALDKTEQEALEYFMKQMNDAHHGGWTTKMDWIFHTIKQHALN
Sequence of human PI3Kα (p110α/p85α) (P27986 whole entry partner): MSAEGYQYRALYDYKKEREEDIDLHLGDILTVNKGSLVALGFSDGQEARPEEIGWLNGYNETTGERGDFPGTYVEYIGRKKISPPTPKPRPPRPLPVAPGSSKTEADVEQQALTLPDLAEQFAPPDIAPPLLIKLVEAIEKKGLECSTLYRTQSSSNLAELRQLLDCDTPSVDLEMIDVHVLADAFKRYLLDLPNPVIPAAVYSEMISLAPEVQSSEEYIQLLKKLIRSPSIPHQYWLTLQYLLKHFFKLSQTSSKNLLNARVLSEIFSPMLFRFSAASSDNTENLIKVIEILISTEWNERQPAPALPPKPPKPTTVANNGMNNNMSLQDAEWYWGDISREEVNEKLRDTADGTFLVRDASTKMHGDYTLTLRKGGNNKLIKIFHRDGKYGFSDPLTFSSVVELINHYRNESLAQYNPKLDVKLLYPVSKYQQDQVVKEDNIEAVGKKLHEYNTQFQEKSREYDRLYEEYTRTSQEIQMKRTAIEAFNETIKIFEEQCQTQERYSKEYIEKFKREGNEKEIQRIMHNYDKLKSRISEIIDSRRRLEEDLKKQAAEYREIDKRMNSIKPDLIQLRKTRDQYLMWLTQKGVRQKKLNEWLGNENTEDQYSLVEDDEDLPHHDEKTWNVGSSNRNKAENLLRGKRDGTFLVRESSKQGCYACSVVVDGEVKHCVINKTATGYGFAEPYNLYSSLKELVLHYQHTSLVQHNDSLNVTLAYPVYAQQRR

[3] = test system: UT-SCC-54C cells; test: Radiosensitisation of UT-SCC-54C HNSCC cells, regrowth (sulforhodamine B) assay, oxic (Table 16); format: cell-based, human; conditions: for IC50: Homo sapiens, read-out: IC50; for S50: compound in combination with 3 Gy of radiation, 50% inhibition of regrowth fraction, UT-SCC-54C; for S50 / radiosensitisation / differential growth inhibition of UT-SCC-54C cells: oxic; for radiosensitisation / differential growth inhibition of UT-SCC-54C cells: 0 or 3 Gy, regrowth assay
[4] = biological target: human DNA-PK (Homo sapiens, UniProt P78527); test: Inhibition of DNA-PKcs kinase activity, HotSpot assay (Reaction Biology), [γ-33P]-ATP phosphorylation of peptide substrate; format: biochemical; conditions: 10 μM ATP, 10 μg/ml DNA; mean of two replicates; Table 12; read-out: Inhibition of kinase activity (as IC50) DNA-PK (converted)
[5] = test system: UT-SCC-54C cells; test: Radiosensitisation of UT-SCC-54C HNSCC cells, clonogenic survival, oxic and anoxic (Table 18); format: cell-based, human

SMILES	IC50 [1]	IC50 [2]	IC50 [3]	S50 [3]	IC50 [4]	radiosensitisation / differential growth inhibition of UT-SCC-54C cells [3]	D1 (radiation dose for 1% surviving fraction) ([5]; 0% O2, compound conc 1 μM)	D10 (radiation dose for 10% surviving fraction) ([5]; 0% O2, compound conc 1 μM)	SER1 (sensitiser enhancement ratio at 1% surviving fraction) ([5]; 0% O2, compound conc 1 μM)	SER10 (sensitiser enhancement ratio at 10% surviving fraction) ([5]; 0% O2, compound conc 1 μM)	Plating efficiency drug/no drug ([5]; 0% O2, compound conc 1 μM, no radiation)	sensitisation of UT-SCC-54C cells selectively under anoxia ([5]; oxic vs anoxic, clonogenic survival, FIGS. 9 and 10)
Cc1cc(Cl)cnc1Nc1cc2c(cn1)n(C)c(=O)n2C1CCOCC1 [Compound 217, 6-((5-Chloro-3-methylpyridin-2-yl)amino)-3-methyl-1-(tetrahydro-2H-pyran-4-yl)-1,3-dihydro-2H-imidazo[4,5-c]pyridin-2-one]	76300 nM	33.1 µM	> 10 µM	3.9 µM	0.052 µM							
Cc1cc(Cl)ncc1Nc1cc2c(cn1)n(C)c(=O)n2C1CCOCC1 [Compound 218, 6-((6-Chloro-4-methylpyridin-3-yl)amino)-3-methyl-1-(tetrahydro-2H-pyran-4-yl)-1,3-dihydro-2H-imidazo[4,5-c]pyridin-2-one]	68400 nM	14.2 µM	> 10 µM	3.1 µM	0.094 µM							
COc1cnc(Nc2cc3c(cn2)n(C)c(=O)n3C2CCOCC2)c(C)c1 [Compound 220, 6-((5-Methoxy-3-methylpyridin-2-yl)amino)-3-methyl-1-(tetrahydro-2H-pyran-4-yl)-1,3-dihydro-2H-imidazo[4,5-c]pyridin-2-one]	> 100000 nM	24 µM	> 10 µM	4.4 µM	0.17 µM							
Cc1cc2nccnc2cc1Nc1cc2c(cn1)n(C)c(=O)n2C1CCOCC1 [Compound 225, 3-Methyl-6-((7-methylquinoxalin-6-yl)amino)-1-(tetrahydro-2H-pyran-4-yl)-1,3-dihydro-2H-imidazo[4,5-c]pyridin-2-one]	58500 nM	1.65 µM	> 10 µM	0.27 µM	0.0034 µM							
COc1ccc(N(C(=O)OCc2cnc([N+](=O)[O-])n2C)c2cc3c(cn2)n(C)c(=O)n3C2CCCC2)c(C)c1 [Compound 247, (1-Methyl-2-nitro-1H-imidazol-5-yl)methyl (1-cyclopentyl-3-methyl-2-oxo-2,3-dihydro-1H-imidazo[4,5-c]pyridin-6-yl)(4-methoxy-2-methylphenyl)carbamate]	> 100000 nM	> 10 µM	> 10 µM	>10 µM	0.871 µM	did not display any differential growth inhibition						
COc1ccc(N(C(=O)OCc2ncc([N+](=O)[O-])n2C)c2cc3c(cn2)n(C)c(=O)n3C2CCOCC2)c(C)c1 [Compound 251, (1-Methyl-5-nitro-1H-imidazol-2-yl)methyl (4-methoxy-2-methylphenyl)(3-methyl-2-oxo-1-(tetrahydro-2H-pyran-4-yl)-2,3-dihydro-1H-imidazo[4,5-c]pyridin-6-yl)carbamate]	> 100000 nM	> 100 µM	> 10 µM	>10 µM	1.26 µM	did not display any differential growth inhibition	19.50 Gy	13.17 Gy	1.10	1.06	1.03	provide sensitisation of UT-SCC-54C cells selectively under anoxia
Cc1cc(Cl)ccc1N(C(=O)OCc1cnc([N+](=O)[O-])n1C)c1cc2c(cn1)n(C)c(=O)n2C1CCOCC1 [Compound 257, (1-Methyl-2-nitro-1H-imidazol-5-yl)methyl (4-chloro-2-methylphenyl)(3-methyl-2-oxo-1-(tetrahydro-2H-pyran-4-yl)-2,3-dihydro-1H-imidazo[4,5-c]pyridin-6-yl)carbamate]	> 100000 nM	> 100 µM	> 10 µM	>10 µM	0.203 µM	did not display any differential growth inhibition						
COc1ccc(N(C(=O)OCc2cnc([N+](=O)[O-])n2C)c2cc3c(cn2)n(C)c(=O)n3C2CCC(OC)CC2)c(C)c1 (centres unmarked) [Compound 258, (1-Methyl-2-nitro-1H-imidazol-5-yl)methyl (4-methoxy-2-methylphenyl)(1-(4-methoxycyclohexyl)-3-methyl-2-oxo-2,3-dihydro-1H-imidazo[4,5-c]pyridin-6-yl)carbamate]	> 100000 nM	39.2 µM	> 10 µM	>10 µM	0.754 µM	did not display any differential growth inhibition						
